These results are taken from patent US7547513B2, “Mutants of deoxycytidine kinase having extended enzymatic activity” (priority 2001, dated 2009).

Type in all cases: cell-based
The test system of assay [1] is Escherichia coli β7336 Δdeo tdk cdd::Tn10 pSUDCK2 (dck:D133E). Conditions: strain β7336, dck allele D133E; 18 h 37° C., MS medium + IPTG. The procedure: The culture was then diluted 100 times in the same medium supplemented with IPTG and distributed on 96-well microplates in a final volume of 100 μl in a series of dilutions from to 2 to 2 nucleotide analogues. Each analogue was tested twice.
(§1) The toxicity of nucleoside analogues, deviating either by the sugar or by the base, was evaluated in strains of genotype Δdeo tdk cdd expressing on a plasmid the different dckH alleles, wild-type allele, D133E, R104Q and double mutant.
(§2) The minimum inhibitory concentrations, expressed in microM, were determined as indicated in the section Materials and Methods.

Assay [2] has as its system Escherichia coli β7338 Δdeo tdk cdd::Tn10 pSUDCK4 (dck:D133E-R104Q). The conditions noted are these: strain β7338, dck allele D133E R104Q; 18 h 37° C., MS medium + IPTG. Here is the method:
(§3) The culture was then diluted 100 times in the same medium supplemented with IPTG and distributed on 96-well microplates in a final volume of 100 μl in a series of dilutions from to 2 to 2 nucleotide analogues. Each analogue was tested twice. After incubation for 18 hours at 37° C. with stirring, the MIC was determined as corresponding to the lowest analogue concentration for which no turbidity was detectable.
as §1, §2

For assay [3], the system named is Escherichia coli β7334 Δdeo tdk cdd::Tn10 pSUTrc (dck allele: none). The conditions noted are these: strain β7334, dck allele none; 18 h 37° C., MS medium + IPTG. The procedure: as §3, §1, §2
The test system of assay [4] is Escherichia coli β7346 Δdeo tdk cdd::Tn10 (dckH D133E, amkG T39A). As to the kind of experiment: microbe, parasite or virus in culture. Conditions: for minimum inhibitory concentration (MIC): strain β7346, dckH D133E, amkG T39A. The procedure: as §3
(§4) We jointly expressed, within the genetic context Δdeo tdk cdd each of the four alleles of dckH with each of the two wt and T39A alleles of amkG, and tested the toxicity of the different nucleoside analogues already tested previously (Table 4 below).
as §2

Assay [5] has as its system Escherichia coli β7348 Δdeo tdk cdd::Tn10 (dckH D133E R104Q, amkG T39A). The assay can be described thus: microbe, parasite or virus in culture. The conditions noted are these: for minimum inhibitory concentration (MIC): strain β7348, dckH D133E R104Q, amkG T39A. The procedure: as §3, §4, §2
The subject of assay [6] is Escherichia coli β7341 Δdeo tdk cdd::Tn10 (dckH D133E, amkG wt). The assay can be described thus: microbe, parasite or virus in culture. Conditions: for minimum inhibitory concentration (MIC): strain β7341, dckH D133E, amkG wt. The procedure: as §3, §4, §2
Assay [7] has as its system Escherichia coli β7344 Δdeo tdk cdd::Tn10 (dckH none, amkG T39A). The assay can be described thus: microbe, parasite or virus in culture. The conditions noted are these: for minimum inhibitory concentration (MIC): strain β7344, dckH none, amkG T39A. The procedure:
as §3, §4, §2

Assay [8] relates to Escherichia coli β7347 Δdeo tdk cdd::Tn10 (dckH R104Q, amkG T39A). As to the kind of experiment: microbe, parasite or virus in culture. The conditions noted are these: for minimum inhibitory concentration (MIC): strain β7347, dckH R104Q, amkG T39A. Here is the method: as §3, §4, §2
Assay [9] concerns Escherichia coli β7340 Δdeo tdk cdd::Tn10 (dckH wt, amkG wt). As to the kind of experiment: microbe, parasite or virus in culture. Conditions: for minimum inhibitory concentration (MIC): strain β7340, dckH wt, amkG wt. Here is the method: as §3, §4, §2
Assay [10] concerns Escherichia coli β7339 Δdeo tdk cdd::Tn10 (dckH none, amkG wt). As to the kind of experiment: microbe, parasite or virus in culture. Conditions: for minimum inhibitory concentration (MIC): strain β7339, dckH none, amkG wt. The procedure:
as §3, §4, §2

The test system of assay [11] is Escherichia coli β7343 Δdeo tdk cdd::Tn10 (dckH D133E R104Q, amkG wt). The assay can be described thus: microbe, parasite or virus in culture. Conditions: for minimum inhibitory concentration (MIC): strain β7343, dckH D133E R104Q, amkG wt. Here is the method:
as §3, §4, §2

The test system of assay [12] is Escherichia coli β7345 Δdeo tdk cdd::Tn10 (dckH wt, amkG T39A). The assay can be described thus: microbe, parasite or virus in culture. The conditions noted are these: for minimum inhibitory concentration (MIC): strain β7345, dckH wt, amkG T39A. The procedure:
as §3, §4, §2

Assay [13] deals with Escherichia coli β7342 Δdeo tdk cdd::Tn10 (dckH R104Q, amkG wt). The assay can be described thus: microbe, parasite or virus in culture. The conditions noted are these: for minimum inhibitory concentration (MIC): strain β7342, dckH R104Q, amkG wt. Here is the method: as §3, §4, §2
Setting [14] is: Escherichia coli, read-out: minimum inhibitory concentration (MIC).

≈ marks a conversion by molar mass, not a printed value.

On to `OC[C@H]1O[C@@H](n2c(O)nc3c(O)ncnc32)C[C@@H]1O` [8ho′dI, 8-hydroxy-hypoxanthine deoxyribonucleoside], for which the “minimum inhibitory concentration (MIC)” value in [1] was 1280 µM; in assay [2], “> (no toxicity could be detected at the highest analogue concentration, 1.28 mM)”; in [3], “> (no toxicity could be detected at the highest analogue concentration, 1.28 mM)”; in assay [4], 1280 µM (≈ 343 µg/mL); in [5], “> (no toxicity could be detected at the highest analogue concentration, 1280 microM)”; in [6], 1280 µM (≈ 343 µg/mL). Also, the “minimum inhibitory concentration (MIC)” value was “> (no toxicity could be detected at the highest analogue concentration, 1280 microM)” in [7]; “> (no toxicity could be detected at the highest analogue concentration, 1280 microM)” in assay [8]; “> (no toxicity could be detected at the highest analogue concentration, 1280 microM)” in [9]; “> (no toxicity could be detected at the highest analogue concentration, 1280 microM)” in [10]; “> (no toxicity could be detected at the highest analogue concentration, 1280 microM)” in [11]; “> (no toxicity could be detected at the highest analogue concentration, 1280 microM)” in assay [12]. Moreover, the “minimum inhibitory concentration (MIC)” value in assay [13] was “> (no toxicity could be detected at the highest analogue concentration, 1280 microM)”.

On to `O=c1[nH]c(=O)n([C@H]2C[C@H](O)[C@@H](CO)O2)cc1Cl` [5-chloro-dU], for which the “minimum inhibitory concentration (MIC)” value in [2] is on record as “> (no toxicity could be detected at the highest analogue concentration, 1.28 mM)”; in assay [3], “> (no toxicity could be detected at the highest analogue concentration, 1.28 mM)”.

Regarding `Nc1ccn([C@H]2CC[C@@H](CO)O2)c(=O)n1` [ddC], the “minimum inhibitory concentration (MIC)” value in assay [2] is reported as “> (no toxicity could be detected at the highest analogue concentration, 1.28 mM)”; in assay [3], “> (no toxicity could be detected at the highest analogue concentration, 1.28 mM)”.

For `O=c1[nH]c(=O)n([C@H]2C[C@H](O)[C@@H](CO)O2)cc1CO` [5-hm-dU], the “minimum inhibitory concentration (MIC)” value in assay [2] is reported as “> (no toxicity could be detected at the highest analogue concentration, 1.28 mM)”; in assay [3], “> (no toxicity could be detected at the highest analogue concentration, 1.28 mM)”.

Take `Nc1nc(=O)n([C@H]2C[C@H](O)[C@@H](CO)O2)cc1Br` [5-bromo-dC, 5-bromo-2-deoxycytidine]: the “minimum inhibitory concentration (MIC)” value in [2] is “> (no toxicity could be detected at the highest analogue concentration, 1.28 mM)”; in assay [3], “> (no toxicity could be detected at the highest analogue concentration, 1.28 mM)”.

As to `Cc1cn([C@H]2C[C@H](O)[C@@H](CO)O2)c(N)nc1=O` [5-methyl-disoC], the “minimum inhibitory concentration (MIC)” value in assay [2] is on record as “> (no toxicity could be detected at the highest analogue concentration, 1.28 mM)”; in assay [3], “> (no toxicity could be detected at the highest analogue concentration, 1.28 mM)”.

Turning to `Cc1cn([C@H]2C[C@H](O)[C@@H](CN)O2)c(=O)[nH]c1=O` [5′-amino-dT], the “minimum inhibitory concentration (MIC)” value was “> (no toxicity could be detected at the highest analogue concentration, 1.28 mM)” in assay [2] and “> (no toxicity could be detected at the highest analogue concentration, 1.28 mM)” in assay [3].

On to `Nc1nc2c(ncn2[C@@H]2C[C@H](O)[C@@H](CO)O2)c(=O)o1` [d-oxanosine], for which the “minimum inhibitory concentration (MIC)” value was 80 µM in assay [1]; “> (no toxicity could be detected at the highest analogue concentration, 1.28 mM)” in [2]; “> (no toxicity could be detected at the highest analogue concentration, 1.28 mM)” in assay [3].

`O=c1ccn([C@H]2CC[C@@H](CO)O2)c(=O)[nH]1` [ddU]: the “minimum inhibitory concentration (MIC)” value in [2] is listed as “> (no toxicity could be detected at the highest analogue concentration, 1.28 mM)”; in assay [3] it was “> (no toxicity could be detected at the highest analogue concentration, 1.28 mM)”.

In the case of `Cc1cn([C@H]2CC[C@@H](CO)O2)c(=O)[nH]c1=O` [ddT], the “minimum inhibitory concentration (MIC)” value in assay [2] was “> (no toxicity could be detected at the highest analogue concentration, 1.28 mM)”; in assay [3] it was “> (no toxicity could be detected at the highest analogue concentration, 1.28 mM)”.

Take `O=c1[nH]c(=O)n([C@H]2C[C@H](O)[C@@H](CO)O2)cc1I` [5-iodo-dU]: the “minimum inhibitory concentration (MIC)” value in assay [2] was “> (no toxicity could be detected at the highest analogue concentration, 1.28 mM)”; in assay [3] it was “> (no toxicity could be detected at the highest analogue concentration, 1.28 mM)”.

`Nc1nc(=O)n([C@H]2C[C@H](O)[C@@H](CO)O2)cc1I` [5-iodo-dC, 5-iodo-2′-deoxycytidine]: the MIC in assay [4] (setting [14]) is at most 1.25 µM; in assay [5] (setting [14]), at most 1.25 µM; in assay [6] (setting [14]) it was at most 1.25 µM; in assay [7] (setting [14]) it was over 1280 µM; in assay [8] (setting [14]) it was at most 1.25 µM; in assay [9] (setting [14]), over 1280 µM. In addition, the MIC in assay [10] (setting [14]) was over 1280 µM; in assay [11] (setting [14]), at most 1.25 µM; in assay [12] (setting [14]), at most 1.25 µM; in assay [13] (setting [14]), at most 1.25 µM.

Take `NC(=O)c1cn([C@H]2C[C@H](O)[C@@H](CO)O2)cn1` [dY, 1-(2′-deoxyribofuranosyl)imidazole-4-carboxamide]: the “minimum inhibitory concentration (MIC)” value in [2] was “> (no toxicity could be detected at the highest analogue concentration, 1.28 mM)”; in assay [3], “> (no toxicity could be detected at the highest analogue concentration, 1.28 mM)”; in [4], 1280 µM (≈ 291 µg/mL); in assay [5], “> (no toxicity could be detected at the highest analogue concentration, 1280 microM)”; in [6], “> (no toxicity could be detected at the highest analogue concentration, 1280 microM)”; in [7] it was “> (no toxicity could be detected at the highest analogue concentration, 1280 microM)”. The “minimum inhibitory concentration (MIC)” value in assay [8] was “> (no toxicity could be detected at the highest analogue concentration, 1280 microM)”; in assay [9] it was “> (no toxicity could be detected at the highest analogue concentration, 1280 microM)”; in assay [10], “> (no toxicity could be detected at the highest analogue concentration, 1280 microM)”; in assay [11], “> (no toxicity could be detected at the highest analogue concentration, 1280 microM)”; in assay [12] it was “> (no toxicity could be detected at the highest analogue concentration, 1280 microM)”; in assay [13] it was “> (no toxicity could be detected at the highest analogue concentration, 1280 microM)”.
